Experimental data: PMC9011347, “Small-Molecule Inhibitors Targeting Lipolysis in Human Adipocytes” (Journal of the American Chemical Society, 2022)

Experiments:
[1] = tested on: primary human omental adipocytes; experiment: Lipolysis in human omental adipocytes; assay type: cell-based; details: NG-497 40 µM
Protocol: Fig. S5: Effect of NG-497 on lipolysis in human omental adipocytes. Omental preadipocytes were obtained from Zen-Bio and differentiated into adipocytes in 96-well trays according to the manufacturer's instructions (OP-F-SL, ZenBio). Cells were then labeled with [9,10-3H] oleic acid (1µCi/well) in full medium for 12 h, washed, and preincubated for 1 h with NG-497 (40 µM) or DMSO (carrier) as a control. Subsequently, the medium was replaced with DMEM containing 2% FA-free BSA and basal as well as Forskolin-stimulated release of radioactivity was monitored in the presence or absence of NG-497. After a 4 h incubation period, cells were lysed in NaOH/SDS (0.3 M/0.1%) and cell-associated radioactivity was determined by liquid scintillation.
Cell-associated radioactivity at time-point 0 (pulse) was calculated as sum of the radioactivity detected in medium and cells after the 4 h chase. The release of fatty acids is shown as % of cell-associated radioactivity.
In the presence of Forskolin, cells lost ~ 20% of the
(b) Time course of FA release during the 4 h chase period. NG-497 reduced basal lipolysis by ~50% and extinguished Forskolin-stimulated lipolysis. Data are presented as mean ± S.D (n = 4). Statistical significance was determined via ANOVA followed by Bonferroni post hoc test (***, p < 0.001).
(1 picture or pasted object on this page, not shown here)

[2] = target: T1, mouse ATGL triple mutant I69F/C97F/T146G (Mus musculus, UniProt Q8BJ56, C97F/I69F/T146G); experiment: TAG hydrolase assay, humanized mouse ATGL variants; assay type: biochemical; details: I69F/C97F/T146G triple mutant of mouse ATGL
T1 construct: host or cells: Expi293 cells, cell lysate
Description: (§1) According to our 3D model, aa T93 and C97 are located in close spatial proximity to I69. […] According to our 3D models, the overall topologies of the minimal active domains of mouse and human ATGL are identical, with S47 and D166 as active site residues in close spatial proximity (depicted as green sticks, Figure 6d,f). Residues S10–L178 (depicted in blue for mouse and pink for human) build a relatively compact half of the protein, while residues K179–L254 (depicted in gray) are less compact. The minimal active domain of both mouse and human ATGL is predicted to have a large, two-pronged fork cavity. The “left,” shallow prong is formed mainly by residues S10–L17 and S170–L254. The “right,” deeper prong is formed by five different helices (depicted in light blue and pink for mouse and human ATGL, respectively). The first helix is assembled by the N-terminal residues G16-E31. […] form three other helices and residues L137–F147 assemble a short helix with an adjacent unstructured stretch. In the orientation shown in Figure 6d,f, the active site is located in the middle part of the cavity connecting both prongs to the exterior. I69, C97, T146, and their human counterparts F69, F97, and G146, are all located in the right prong of the cavity. T(G)146 is located near the active site, while I(F)69 and C(F)97 are located on the opposite side of the cavity in close spatial proximity (Figure 6e,g). Our 3D homology models indicate that these residues change the widths and depths of the right prong, which can explain their crucial contribution to inhibitor selectivity and efficacy.
(§2) Figure 6 Identification of the molecular scaffold determining species selectivity. (a) Schematic view of mouse ATGL variants, which are sensitive to NG-497 inhibition. Humanized aa are indicated in red and nonidentical aa are indicated in dark blue. (b) Dose-dependent inhibition of the I69F/T146G double mutant, the I69F/T93I/C97F/T146G quadruple mutant, and human ATGL. (c) Dose-dependent inhibition of triple mutants I69F/T93I/T146G and I69F/C97F/T146G, and human ATGL. IC50 values are shown in the insets. […]

[3] = target: T2, mouse ATGL triple mutant I69F/T93I/T146G (Mus musculus, UniProt Q8BJ56, I69F/T146G/T93I); experiment: TAG hydrolase assay, humanized mouse ATGL variants; assay type: biochemical; details: I69F/T93I/T146G triple mutant of mouse ATGL
T2 construct: host or cells: Expi293 cells, cell lysate
Description: as §1, §2

[4] = target: T3, mouse ATGL I69F/T93I/C97F/T146G quadruple mutant (Mus musculus, UniProt Q8BJ56, C97F/I69F/T146G/T93I); experiment: TAG hydrolase assay, humanized mouse ATGL variants; assay type: biochemical; details: I69F/T93I/C97F/T146G quadruple mutant of mouse ATGL
T3 construct: host or cells: Expi293 cells, cell lysate
Description: as §1, §2

T2 sequence (Q8BJ56 whole entry I69F/T93I/T146G): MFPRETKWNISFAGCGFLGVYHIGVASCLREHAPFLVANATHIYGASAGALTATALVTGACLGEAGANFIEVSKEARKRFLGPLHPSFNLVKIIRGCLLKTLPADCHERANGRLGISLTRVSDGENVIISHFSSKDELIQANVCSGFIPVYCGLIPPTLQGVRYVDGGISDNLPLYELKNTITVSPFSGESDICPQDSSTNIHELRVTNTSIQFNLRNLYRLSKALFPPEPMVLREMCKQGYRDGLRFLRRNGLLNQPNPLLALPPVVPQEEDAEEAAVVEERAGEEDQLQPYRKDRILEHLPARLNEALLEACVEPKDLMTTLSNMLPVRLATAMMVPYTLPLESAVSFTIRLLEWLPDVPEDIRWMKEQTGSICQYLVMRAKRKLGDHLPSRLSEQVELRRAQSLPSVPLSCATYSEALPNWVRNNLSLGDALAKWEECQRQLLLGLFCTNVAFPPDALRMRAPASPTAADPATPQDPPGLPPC
T1 sequence (Q8BJ56 whole entry I69F/C97F/T146G): as the sequence (Q8BJ56 whole entry I69F/T93I/T146G) above, with I93T, C97F counted along it
T3 sequence (Q8BJ56 whole entry I69F/T93I/C97F/T146G): as the sequence (Q8BJ56 whole entry I69F/T93I/T146G) above, with C97F counted along it

CCOc1ccc(-c2cc(OC)cc(C(=O)OC(C)C)n2)cc1 [NG-497]
Forskolin-induced loss of cell-associated radiolabel (~ 20%) ([1]; 4 h): completely prevented
Forskolin-induced TAG degradation and FA release (Forskolin-stimulated lipolysis) ([1]; 4 h chase): extinguished
reduction of basal lipolysis ([1]; 4 h chase): ~ 50%
IC50 [2]: 1 µM
IC50 [3]: 9.3 µM
IC50 [4]: 1.6 ± 0.1 µM
